Measurements taken from the METLIN SMRT retention time set (Domingo-Almenara et al. 2019).

Assay: gradient 5% acetonitrile 3 min, to 50% in 2 min, to 85% in 15 min, held 3 min, 100 µL/min
Conditions: column: Zorbax Extend-C18 2.1 x 50 mm; eluents: water / acetonitrile, 0.1% formic acid
Outline: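 The mobile phases were water and acetonitrile, each with 0.1% formic acid, pumped at 100 μL/min through a Zorbax Extend-C18 column (2.1 × 50 mm, 1.8 μm). Pure standards were injected as mixtures of ~100 molecules and detected by a quadrupole time-of-flight mass spectrometer in positive and negative ionization mode. Retention time came from computationally picked adduct peaks, each inspected by hand.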

Compound | RP-LC retention time
Cc1cccc(-n2c(=O)c3c(cc(C)n3C)n(CC(=O)Nc3ccc(C)c(F)c3)c2=O)c1 | 866 s
CC(C)Cn1cc(CCNS(=O)(=O)c2ccc(Cl)c(Cl)c2)c2cccnc21 | 1060 s
Cn1c(C2CCN(C(=O)c3ccc(C(F)(F)F)s3)C2)nc2cccnc21 (stereo not given) | 716 s
CC(=O)c1cccc(NC(=O)c2cc(C)nc3ccccc23)c1 | 654 s
Cc1nn(-c2ccccc2)c(C)c1C=NN1CCN(Cc2ccccc2)CC1 | 739 s
CCSc1ccccc1C(=O)NCc1cc(-c2ccccc2)on1 | 864 s
CC(C)NC(=O)c1c2c(cn(-c3ccc(F)cc3)c1=O)C(=O)CC(C)(C)C2 | 869 s
Cc1noc(C)c1CC(=O)NC1CCN(c2ccc(=O)n(CCOc3ccccc3)n2)C1 (stereo not given) | 701 s
CCCCNC(=O)C1CCCN(C(=O)c2[nH]c(C)c(C(=O)OCC)c2C)C1 (stereo not given) | 756 s
O=C(Cn1nc2c3cc(-c4ccc(Cl)cc4)nn3ccn2c1=O)NC1CCCCC1 | 906 s
Cc1ccc(NC(=O)c2cn3c(n2)CCCC3)cc1C | 604 s
COC(=O)c1c(C)[nH]c(C(=O)N2CCC(CC(=O)NC(C)c3ccccc3)CC2)c1C (stereo not given) | 762 s
CN1C(=O)c2cc(C(=O)N3CCN(c4ccccc4)CC3)nn2CC1(C)C(=O)NC1CCCCC1 (stereo not given) | 803 s
COc1ccc2[nH]c(=O)c(CCC(=O)O)cc2c1 | 712 s
CCn1cnc2ccc(-c3noc(-c4cccc(F)c4)n3)cc21 | 769 s
CC(C)CNC(=O)CCc1nc2ccccc2n(CC(=O)NC(C)CCc2ccccc2)c1=O (stereo not given) | 869 s
O=C1CCc2cc(NC(=O)c3cccc(C(F)(F)F)c3)ccc2N1 | 717 s
O=C(c1ccc2c(c1)OCO2)N1CCN(c2ccc(=O)n(-c3ccc(Cl)cc3)n2)CC1 | 791 s

Compound | RP-LC retention time
Cc1ccc(C)c(Cn2nc3c(S(=O)(=O)N4CCCCC4)cccn3c2=O)c1 | 974 s
O=C(NCC1CCCCC1)c1ccc(CN2C(=O)C3CCCN3C(=O)c3ccccc32)cc1 (stereo not given) | 824 s
CCN(CC)S(=O)(=O)c1cccc(-c2nnc(-c3ccccc3OC)o2)c1 | 950 s
COc1cccc(-c2noc(Cn3c(=O)n(-c4ccccc4F)c(=O)c4sccc43)n2)c1 | 957 s
O=C(Cn1nc2c(Sc3cccc(F)c3)nccn2c1=O)N1CCN(c2ccccc2)CC1 | 914 s
Cc1ccc(-c2ncc(C(=O)NCCC3=CCCCC3)c(-c3ccncc3)n2)cc1 | 1050 s
O=C(C1CCN(S(=O)(=O)c2ccc(-c3noc(-c4ccncc4)n3)cc2)CC1)N1CCCC1 | 814 s
Cc1ccc(-c2noc(-c3nc(Cc4ccc(F)cc4)no3)n2)cc1 | 1180 s
COc1ccc(-c2nnc(COc3ccc(NC(=O)C4CCCC4)cc3)o2)cc1 | 946 s
NC(=O)c1c(N)c(C(=O)c2cccc([N+](=O)[O-])c2)n2ccccc12 | 649 s
CCc1noc(-c2ccnc(-n3cnc(C(=O)NCc4ccccc4C)c3)c2)n1 | 939 s
Cc1ccccc1-c1nc(-c2ccc3nnn(C)c3c2)no1 | 1060 s
CC(C(=O)N1CCN(C(=O)c2ccco2)CC1)n1c(=O)c(C(F)(F)F)nc2ccccc21 (stereo not given) | 834 s
Cc1cc(NS(=O)(=O)c2cc(-c3[nH]ncc3C(=O)N3CCCCC3)oc2C)ccc1F | 783 s
O=C(CCc1nnc2c3cc(-c4ccc(F)cc4)nn3ccn12)NCc1ccc(Cl)cc1 | 822 s
CCc1nncn1C1CCN(S(=O)(=O)c2cc(F)ccc2C)CC1 | 658 s
O=C(Cn1c(=O)ccc2cc(S(=O)(=O)N3CCCC3)ccc21)N1CCN(c2ncccn2)CC1 | 708 s
